The source of these data is ChEMBL document CHEMBL4354874, “Insights into PPARγ Phosphorylation and Its Inhibition Mechanism” (J Med Chem, 2020).

Active and inactive are the calls of the source. No cut-off for these calls is given here.

The target in the assay is Cyclin-dependent kinase 5 (Homo sapiens) (UniProt Q00535). As to the kind of experiment: Inhibition of CDK5 (unknown origin) assessed as reduction in histone H1 phosphorylation.
Cyclin-dependent kinase 5 (Homo sapiens), sequence (Q00535 whole entry, looked up): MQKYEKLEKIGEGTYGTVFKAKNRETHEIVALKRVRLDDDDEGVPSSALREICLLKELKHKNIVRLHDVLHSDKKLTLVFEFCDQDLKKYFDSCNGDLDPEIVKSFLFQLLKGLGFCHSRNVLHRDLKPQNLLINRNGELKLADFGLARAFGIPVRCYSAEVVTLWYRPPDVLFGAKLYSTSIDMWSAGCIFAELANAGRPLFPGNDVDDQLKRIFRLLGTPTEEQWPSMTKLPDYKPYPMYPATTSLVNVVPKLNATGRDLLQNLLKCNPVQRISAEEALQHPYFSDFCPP

Take `O=C(O)[C@H](Cc1ccccc1)Oc1ccc(-c2ccccc2)cc1`: the inhibition entry is “inactive”.
